# Laboratory results from patent US20090131354A1, “miR-126 REGULATED GENES AND PATHWAYS AS TARGETS FOR THERAPEUTIC INTERVENTION” (priority 2007, published 2009).
# System: A549 cells
# Assay: mRNA array gene expression analysis after transfection
# Format: cell-based, human
substance,measurement,setting,value
"hsa-miR-126 (UCGUACCGUGAGUAAUAAUGC; synthetic pre-miR form, further chemistry not given here) [Synthetic hsa-miR-126 (Pre-miR™-hsa-miR-126, Ambion cat. no. AM17100)]",Δ log2 PRNP mRNA,,−0.8862 log2
same,Δ log2 ABAT mRNA,"A549, 30 nM",0.7144 log2
same,Δ log2 ABCC1 mRNA,"A549, 30 nM",−1.371 log2
same,Δ log2 ABHD3 mRNA,"A549, 30 nM",−1.85 log2
same,Δ log2 ACSM3 mRNA,"A549, 30 nM",1.028 log2
same,Δ log2 ACTR2 mRNA,"A549, 30 nM",0.8699 log2
same,Δ log2 ADAM9 mRNA,"A549, 30 nM",−1.175 log2
same,Δ log2 ADK mRNA,"A549, 30 nM",−1.161 log2
same,Δ log2 AES mRNA,"A549, 30 nM",−1.21 log2
same,Δ log2 AHNAK mRNA,"A549, 30 nM",−1.362 log2
same,Δ log2 ALDH6A1 mRNA,"A549, 30 nM",0.9207 log2
same,Δ log2 ANG /// RNASE4 mRNA,"A549, 30 nM",0.8377 log2
same,Δ log2 ANKRD46 mRNA,"A549, 30 nM",1.489 log2
same,Δ log2 ANPEP mRNA,"A549, 30 nM",1.016 log2
same,Δ log2 ANTXR1 mRNA,"A549, 30 nM",−1.152 log2
same,Δ log2 APOH mRNA,"A549, 30 nM",1.465 log2
same,Δ log2 APP mRNA,"A549, 30 nM",0.7951 log2
same,Δ log2 AQP3 mRNA,"A549, 30 nM",1.683 log2
same,Δ log2 ARFRP1 mRNA,"A549, 30 nM",−0.7079 log2
same,Δ log2 ARG2 mRNA,"A549, 30 nM",0.8026 log2
same,Δ log2 ARHGAP11A mRNA,"A549, 30 nM",−0.8591 log2
same,Δ log2 ARHGDIA mRNA,"A549, 30 nM",−1.479 log2
same,Δ log2 ARID5B mRNA,"A549, 30 nM",0.8176 log2
same,Δ log2 ARL2BP mRNA,"A549, 30 nM",0.9301 log2
same,Δ log2 ARTS-1 mRNA,"A549, 30 nM",0.886 log2
same,Δ log2 ASNS mRNA,"A549, 30 nM",−0.7092 log2
same,Δ log2 ATP6V0E mRNA,"A549, 30 nM",1.493 log2
same,Δ log2 ATP6V1D mRNA,"A549, 30 nM",−1.206 log2
same,Δ log2 B4GALT4 mRNA,"A549, 30 nM",−2.01 log2
same,Δ log2 B4GALT6 mRNA,"A549, 30 nM",−0.8145 log2
same,Δ log2 BCL2A1 mRNA,"A549, 30 nM",−0.8657 log2
same,Δ log2 BCL6 mRNA,"A549, 30 nM",1.023 log2
same,Δ log2 BF mRNA,"A549, 30 nM",1.375 log2
same,Δ log2 BHLHB2 mRNA,"A549, 30 nM",−0.7321 log2
same,Δ log2 BTG2 mRNA,"A549, 30 nM",0.7161 log2
same,Δ log2 C1R mRNA,"A549, 30 nM",1.372 log2
same,Δ log2 C1orf121 mRNA,"A549, 30 nM",−1.019 log2
same,Δ log2 C2orf26 mRNA,"A549, 30 nM",−1.688 log2
same,Δ log2 C2orf33 mRNA,"A549, 30 nM",−1.066 log2
same,Δ log2 C3 mRNA,"A549, 30 nM",1.751 log2
same,Δ log2 C5orf15 mRNA,"A549, 30 nM",−1.099 log2
same,Δ log2 C6orf75 mRNA,"A549, 30 nM",−1.159 log2
same,Δ log2 C8orf1 mRNA,"A549, 30 nM",−1.201 log2
same,Δ log2 C8orf32 mRNA,"A549, 30 nM",−1.162 log2
same,Δ log2 C19orf28 mRNA,"A549, 30 nM",−1.583 log2
same,Δ log2 CA11 mRNA,"A549, 30 nM",0.8832 log2
same,Δ log2 CCND1 mRNA,"A549, 30 nM",−0.7871 log2
same,Δ log2 CCNG1 mRNA,"A549, 30 nM",0.7209 log2
same,Δ log2 CD9 mRNA,"A549, 30 nM",−1.226 log2
same,Δ log2 CDC37L1 mRNA,"A549, 30 nM",−1.198 log2
same,Δ log2 CDH4 mRNA,"A549, 30 nM",−1.072 log2
same,Δ log2 CDH17 mRNA,"A549, 30 nM",1.248 log2
same,Δ log2 CEACAM1 mRNA,"A549, 30 nM",1.002 log2
same,Δ log2 CEBPD mRNA,"A549, 30 nM",0.9196 log2
same,Δ log2 CFH /// CFHL1 mRNA,"A549, 30 nM",0.727 log2
same,Δ log2 CGI-38 mRNA,"A549, 30 nM",1.152 log2
same,Δ log2 CGI-48 mRNA,"A549, 30 nM",1.409 log2
same,Δ log2 CHGB mRNA,"A549, 30 nM",2.066 log2
same,Δ log2 CHST11 mRNA,"A549, 30 nM",−0.8983 log2
same,Δ log2 CMKOR1 mRNA,"A549, 30 nM",−0.9537 log2
same,Δ log2 COL4A1 mRNA,"A549, 30 nM",−1.251 log2
same,Δ log2 COL4A2 mRNA,"A549, 30 nM",−1.104 log2
same,Δ log2 COPS7A mRNA,"A549, 30 nM",−0.7137 log2
same,Δ log2 CP mRNA,"A549, 30 nM",2.115 log2
same,Δ log2 CPE mRNA,"A549, 30 nM",0.8454 log2
same,Δ log2 CPS1 mRNA,"A549, 30 nM",0.7371 log2
same,Δ log2 CTDSP2 mRNA,"A549, 30 nM",1.119 log2
same,Δ log2 CTDSPL mRNA,"A549, 30 nM",0.7348 log2
same,Δ log2 CTGF mRNA,"A549, 30 nM",0.7924 log2
same,Δ log2 CTPS mRNA,"A549, 30 nM",−1.07 log2
same,Δ log2 CTSS mRNA,"A549, 30 nM",0.9282 log2
same,Δ log2 CXCL5 mRNA,"A549, 30 nM",0.8706 log2
same,Δ log2 CYP3A5 mRNA,"A549, 30 nM",0.8111 log2
same,Δ log2 DAAM1 mRNA,"A549, 30 nM",0.7598 log2
same,Δ log2 DCBLD2 mRNA,"A549, 30 nM",−1.329 log2
same,Δ log2 DCUN1D1 mRNA,"A549, 30 nM",−1.329 log2
same,Δ log2 DDC mRNA,"A549, 30 nM",1.008 log2
same,Δ log2 DDX3Y mRNA,"A549, 30 nM",0.738 log2
same,Δ log2 DHRS2 mRNA,"A549, 30 nM",1.489 log2
same,Δ log2 DIO2 mRNA,"A549, 30 nM",−1.213 log2
same,Δ log2 DIPA mRNA,"A549, 30 nM",−0.8054 log2
same,Δ log2 DKFZP586A0522 mRNA,"A549, 30 nM",1.054 log2
same,Δ log2 DLG5 mRNA,"A549, 30 nM",−1.467 log2
same,Δ log2 DNAJB9 mRNA,"A549, 30 nM",0.9599 log2
same,Δ log2 DPYSL3 mRNA,"A549, 30 nM",−0.947 log2
same,Δ log2 DSU mRNA,"A549, 30 nM",0.9423 log2
same,Δ log2 DUSP6 mRNA,"A549, 30 nM",0.7153 log2
same,Δ log2 EEF1D mRNA,"A549, 30 nM",0.9871 log2
same,Δ log2 EFHD2 mRNA,"A549, 30 nM",−1.109 log2
same,Δ log2 EGFR mRNA,"A549, 30 nM",−1.333 log2
same,Δ log2 EHF mRNA,"A549, 30 nM",2.017 log2
same,Δ log2 EML1 mRNA,"A549, 30 nM",−1.062 log2
same,Δ log2 ENPP4 mRNA,"A549, 30 nM",0.8064 log2
same,Δ log2 EPHB2 mRNA,"A549, 30 nM",−0.8763 log2
same,Δ log2 ERBB3 mRNA,"A549, 30 nM",1.041 log2
same,Δ log2 EREG mRNA,"A549, 30 nM",−0.7398 log2
same,Δ log2 F2RL1 mRNA,"A549, 30 nM",−0.7846 log2
same,Δ log2 F5 mRNA,"A549, 30 nM",1.115 log2
same,Δ log2 F8A1 mRNA,"A549, 30 nM",−0.8485 log2
same,Δ log2 FAM46A mRNA,"A549, 30 nM",0.8499 log2
same,Δ log2 FAS mRNA,"A549, 30 nM",0.9486 log2
same,Δ log2 FBXO11 mRNA,"A549, 30 nM",0.8295 log2
same,Δ log2 FCMD mRNA,"A549, 30 nM",−0.8718 log2
same,Δ log2 FGB mRNA,"A549, 30 nM",1.118 log2
same,Δ log2 FGFR1 mRNA,"A549, 30 nM",−0.7031 log2
same,Δ log2 FGFR4 mRNA,"A549, 30 nM",0.9059 log2
same,Δ log2 FGL1 mRNA,"A549, 30 nM",2.076 log2
same,Δ log2 FLJ11184 mRNA,"A549, 30 nM",−0.9264 log2
same,Δ log2 FLJ13910 mRNA,"A549, 30 nM",1.05 log2
same,Δ log2 FLJ20364 mRNA,"A549, 30 nM",−1.021 log2
same,Δ log2 FLJ21159 mRNA,"A549, 30 nM",−1.12 log2
same,Δ log2 FLJ31568 mRNA,"A549, 30 nM",0.732 log2
same,Δ log2 FLRT3 mRNA,"A549, 30 nM",1.34 log2
same,Δ log2 FMO5 mRNA,"A549, 30 nM",1.277 log2
same,Δ log2 FOSL1 mRNA,"A549, 30 nM",−0.9348 log2
same,Δ log2 GABRA5 mRNA,"A549, 30 nM",−1.612 log2
same,Δ log2 GALNT4 mRNA,"A549, 30 nM",1.916 log2
same,Δ log2 GALNT12 mRNA,"A549, 30 nM",−0.8981 log2
same,Δ log2 GART mRNA,"A549, 30 nM",−1.022 log2
same,Δ log2 GATM mRNA,"A549, 30 nM",1.127 log2
same,Δ log2 GCH1 mRNA,"A549, 30 nM",0.9389 log2
same,Δ log2 GLI2 mRNA,"A549, 30 nM",−0.8678 log2
same,Δ log2 GLT25D1 mRNA,"A549, 30 nM",−1.17 log2
same,Δ log2 GLUL mRNA,"A549, 30 nM",0.734 log2
same,Δ log2 GNA13 mRNA,"A549, 30 nM",0.7394 log2
same,Δ log2 GPR64 mRNA,"A549, 30 nM",−1.209 log2
same,Δ log2 GREM1 mRNA,"A549, 30 nM",−1.049 log2
same,Δ log2 GTF2B mRNA,"A549, 30 nM",−0.9795 log2
same,Δ log2 GTSE1 mRNA,"A549, 30 nM",−0.7712 log2
same,Δ log2 H2AFY mRNA,"A549, 30 nM",−0.841 log2
same,Δ log2 H3F3B mRNA,"A549, 30 nM",−1.391 log2
same,Δ log2 HERC4 mRNA,"A549, 30 nM",−1.409 log2
same,Δ log2 HES1 mRNA,"A549, 30 nM",0.8154 log2
same,Δ log2 HIPK3 mRNA,"A549, 30 nM",0.8255 log2
same,Δ log2 HKDC1 mRNA,"A549, 30 nM",−0.8911 log2
same,Δ log2 HLA-DMA mRNA,"A549, 30 nM",1.267 log2
same,Δ log2 HLA-DMB mRNA,"A549, 30 nM",1.253 log2
same,Δ log2 HMGA1 mRNA,"A549, 30 nM",−0.8703 log2
same,Δ log2 IER3IP1 mRNA,"A549, 30 nM",1.015 log2
same,Δ log2 IFI16 mRNA,"A549, 30 nM",0.7014 log2
same,Δ log2 IFIT1 mRNA,"A549, 30 nM",0.766 log2
same,Δ log2 IL6R mRNA,"A549, 30 nM",1.8 log2
same,Δ log2 IL6ST mRNA,"A549, 30 nM",0.7356 log2
same,Δ log2 IL11 mRNA,"A549, 30 nM",−1.98 log2
same,Δ log2 ILK mRNA,"A549, 30 nM",−1.193 log2
same,Δ log2 INHBC mRNA,"A549, 30 nM",0.988 log2
same,Δ log2 ITGAV mRNA,"A549, 30 nM",−1.397 log2
same,Δ log2 ITGB4 mRNA,"A549, 30 nM",−1.084 log2
same,Δ log2 IVNS1ABP mRNA,"A549, 30 nM",−1.126 log2
same,Δ log2 JUN mRNA,"A549, 30 nM",−1.257 log2
same,Δ log2 KCNJ2 mRNA,"A549, 30 nM",0.9432 log2
same,Δ log2 KCNJ16 mRNA,"A549, 30 nM",0.8637 log2
same,Δ log2 KCNK5 mRNA,"A549, 30 nM",0.9088 log2
same,Δ log2 KCTD9 mRNA,"A549, 30 nM",−1.102 log2
same,Δ log2 KIAA0152 mRNA,"A549, 30 nM",−1.121 log2
same,Δ log2 KIAA0317 mRNA,"A549, 30 nM",−0.9984 log2
same,Δ log2 KIAA0882 mRNA,"A549, 30 nM",0.7061 log2
same,Δ log2 KLC2 mRNA,"A549, 30 nM",−1.308 log2
same,Δ log2 KLF4 mRNA,"A549, 30 nM",−1.01 log2
same,Δ log2 LARP6 mRNA,"A549, 30 nM",−1.273 log2
